Values of other authors as cited in patent US20080206336A1, “Novel Composition Comprising Rosiglitazone and Another Antidiabetic Agent” (SB PHARMCO PURERTO RICO INC. The Prentice Hall Corp. System …, priority 2003, published 2008).

Conditions: acidic conditions of the stomach (around pH 2) versus near neutral conditions of the lower intestine (around pH 7)

- pH dependent solubility: marked pH dependent solubility
SMILES: CN(CCOc1ccc(CC2SC(=O)NC2=O)cc1)c1ccccn1 (stereo not shown) [Compound A, 5-[4-[2-(N-methyl-N-(2 pyridyl)amino)ethoxy]benzyl]thiazolidine-2,4-dione]
